What all share (assay type): cell-based, human
Common to all, as to details: for inhibition at 10 µM: Homo sapiens

Test [1] has as its system H1975. Kind of test: Non Small Cell Lung Cancer proliferation assay (Alamar Blue reduction), H1975. As to the method: (§1) These cells have a doubling time of 1-2 days. All cell types are adherent and grow in colonies. The cells should be kept at a density between 50,000 cells/mL -500,000 cells/mL to provide for optimum growth and adequate nutrition. The cell line should be maintained at 37° C. in a humidified atmosphere with 5% CO2 in a sterile cell culture incubator.
(§2) Non Small Cell Lung Cancer Proliferation Assay.
(§3) High Controls for this assay are made by treating Non Small Cell Lung Cancer cells with 5 ul of 10% DMSO. [Final concentration in this assay is 1% DMSO].
(§4) Important Note: All compounds for testing in this assay should be done at the final concentration of 1% DMSO.
(§5) After addition, the cells are placed in cell culture incubator at 37° C. for 48 hours for complete treatment.
(§6) After drug treatment, cytotoxicity is measured by Alamar Blue reduction.
(§7) The cells are incubated for 48 hours at 37° C. to complete the Alamar Blue reduction.
(§8) The final step in the assay is to measure the amount of Alamar Blue reduction. […] The Alamar Blue fluorescence is measured at an excitation of 530 nm and emission of 590 nm.
(§9) For the NSCLC project, the cell based assay was screened against a small molecule library of approximately 200,000 compounds. The compound library is stored in our automated robotic freezer (Biophile) at −20° C. in 100% DMSO. Compound freeze and thaw cycles are kept to a minimum. […] This assay was performed on a fully automated linear track robotic platform (CRS F3 Robot System, Thermo Electron Corp., Ontario, Canada) utilizing several integrated peripherals for plate handling, liquid dispensing, and readout detection. […] The microplates are then placed at 37° C. for 48 hours to complete treatment of cells with compounds. Next, 5 ul of alamar blue was added using a liquid dispenser (Flexprop Precision Dispenser, Perkin Elmer, Mass., USA) and incubated for 48 hours at 37° C. The alamar blue prompt fluorescence was measured on Victor V (Victor^3 V, Perkin Elmer, Mass., USA) and output data files were loaded into ORIS (Oncology Research Informatics System, MSKCC, NY, USA), a screening data acquisition and analysis platform.
(§10) The dose response studies were done with the following standard procedure. First, the cells were counted and dispensed at 250 cells/well into 384-well microplates with compound. The cells were incubated for 48 hours at 37 C to complete treatment, and then alamar blue was added for an additional 48 hours. Finally, alamar blue reduction was measured and the data was loaded into ORIS, our data screening acquisition platform.

The subject of test [2] is H3255. The test is described as follows: Non Small Cell Lung Cancer proliferation assay (Alamar Blue reduction), H3255. As to the method: as §1, §2, §3, §4, §5, §6, §7, §8, §9, §10
Test [3] deals with H1650. Kind of test: Non Small Cell Lung Cancer proliferation assay (Alamar Blue reduction), H1650. On the procedure: as §1, §2, §3, §4, §5, §6, §7, §8, §9, §10
Test [4] concerns H2030. The test is described as follows: Non Small Cell Lung Cancer proliferation assay (Alamar Blue reduction), H2030. On the procedure: as §1, §2, §3, §4, §5, §6, §7, §8, §9, §10
Where [5] appears, read: NCI-H1975, primary screening, 10 μM compound in 1% DMSO (v/v), read-out: percentage inhibition H1975.
[6] abbreviates: NCI-H3255, primary screening, 10 μM compound in 1% DMSO (v/v), read-out: percentage inhibition H3255.
The mark [7] stands for this setting: NCI-H1650, primary screening, 10 μM compound in 1% DMSO (v/v), read-out: percentage inhibition H1650.
The mark [8] stands for this setting: NCI-H2030, primary screening, 10 μM compound in 1% DMSO (v/v), read-out: percentage inhibition H2030.
Where [9] appears, read: NCI-H1975, primary screening, H1975, 10 μM compound in 1% DMSO (v/v), read-out: PRIMARY HTS [%] H1975 (percentage inhibition).
Where [10] appears, read: NCI-H3255, primary screening, H3255, 10 μM compound in 1% DMSO (v/v), read-out: PRIMARY HTS [%] H3255 (percentage inhibition).
Where [11] appears, read: NCI-H1650, primary screening, H1650, 10 μM compound in 1% DMSO (v/v), read-out: PRIMARY HTS [%] H1650 (percentage inhibition).
[12] abbreviates: NCI-H2030, primary screening, H2030, 10 μM compound in 1% DMSO (v/v), read-out: PRIMARY HTS [%] H2030 (percentage inhibition).

Where two headings read alike, the source gives them in different places.

In the case of `CC(=O)N(C(C)=O)c1c(Cl)cnn(-c2ccccc2)c1=O` [compound 187116], the inhibition at 10 µM is 90% in test [1] (setting [5]), 27% in test [2] (setting [6]), 31% in test [3] (setting [7]) and 4% in test [4] (setting [8]).

As to `Cc1cccnc1NC(=O)c1ccc([N+](=O)[O-])o1` [compound 108321], in test [1] (primary screening, H1975, 10 μM compound in 1% DMSO (v/v)), the “PRIMARY HTS [%] H1975 (percentage inhibition)” value is given as −7%. Moreover, in test [2] (primary screening, H3255, 10 μM compound in 1% DMSO (v/v)), the “PRIMARY HTS [%] H3255 (percentage inhibition)” value was 2%. For the same compound, the “PRIMARY HTS [%] H1650 (percentage inhibition)” value in test [3] (primary screening, H1650, 10 μM compound in 1% DMSO (v/v)) stood at 38%. For the same compound, the “PRIMARY HTS [%] H2030 (percentage inhibition)” value in test [4] (primary screening, H2030, 10 μM compound in 1% DMSO (v/v)) is listed as 6%.

Take `O=c1c(Cl)c(SC(c2ccccc2)c2ccccc2)cnn1-c1ccccc1` [compound 208697]: the inhibition at 10 µM was -16% in test [1] (setting [5]), 31% in test [2] (setting [6]), -3% in test [3] (setting [7]) and 4% in test [4] (setting [8]).

For `COc1cnn(-c2ccc(C)cc2)c(=O)c1SCc1ccccc1` [compound 208694], the inhibition at 10 µM in test [1] (setting [5]) is -29%; in test [2] (setting [6]), -16%; in test [3] (setting [7]) it was -21%; in test [4] (setting [8]), 3%.

Take `COc1cnn(-c2ccccc2)c(=O)c1Cl` [compound 104386]: the inhibition at 10 µM is -11% in test [1] (setting [5]), 0% in test [2] (setting [6]), -12% in test [3] (setting [7]) and 6% in test [4] (setting [8]).

Consider `O=c1c(Cl)c(Cl)c(O)nn1-c1ccccc1` [compound 103751], for which the inhibition at 10 µM was -4% in test [1] (setting [5]), 0% in test [2] (setting [6]), 6% in test [3] (setting [7]) and -4% in test [4] (setting [8]).

Consider `CC1CN(C(=O)c2ccc([N+](=O)[O-])o2)CC(C)O1` (stereo not drawn) [compound 77942], for which the inhibition at 10 µM in test [1] (setting [9]) was -2%; in test [2] (setting [10]), 7%; in test [3] (setting [11]), 14%; in test [4] (setting [12]) it was 6%.

For `O=C(Nc1cccc(Cl)c1)c1ccco1` [compound 78107], the inhibition at 10 µM is -14% in test [1] (setting [9]), 6% in test [2] (setting [10]), 14% in test [3] (setting [11]) and 4% in test [4] (setting [12]).

As for `Cc1ccccc1-n1ncc(SCc2ccccc2)c(Cl)c1=O` [compound 224765], the inhibition at 10 µM in test [1] (setting [5]) is 1%; in test [2] (setting [6]), -12%; in test [3] (setting [7]), 7%; in test [4] (setting [8]), -15%.

On to `CCOc1cnn(-c2ccccc2)c(=O)c1Cl` [compound 104217], for which the inhibition at 10 µM was -7% in test [1] (setting [5]), -1% in test [2] (setting [6]), -15% in test [3] (setting [7]) and 6% in test [4] (setting [8]).

Turning to `COc1ccc(N2CCN(Cc3ccc([N+](=O)[O-])o3)CC2)cc1` [compound 100588], the inhibition at 10 µM in test [1] (setting [9]) is -14%; in test [2] (setting [10]) it was 4%; in test [3] (setting [11]), -5%; in test [4] (setting [12]) it was 5%.

As to `O=C(Nc1ccc(I)cc1)c1ccc([N+](=O)[O-])o1` [compound 103710], the inhibition at 10 µM is 17% in test [1] (NCI-H1975, read-out: PRIMARY HTS [%] H1975 (percentage inhibition)); 4% in test [2] (NCI-H3255, read-out: PRIMARY HTS [%] H3255 (percentage inhibition)); 33% in test [3] (NCI-H1650, read-out: PRIMARY HTS [%] H1650 (percentage inhibition)); -5% in test [4] (NCI-H2030, read-out: PRIMARY HTS [%] H2030 (percentage inhibition)).

For `O=c1ccc(Cl)nn1-c1ccc(Br)cc1` [compound 222922], the inhibition at 10 µM in test [1] (setting [5]) was 3%; in test [2] (setting [6]) it was -7%; in test [3] (setting [7]), -20%; in test [4] (setting [8]) it was -30%.

Turning to `O=C(Nc1ccc(NC(=O)c2ccc(Cl)cc2Cl)cc1)c1cc2ccccc2o1` [compound 109007], the inhibition at 10 µM in test [1] (setting [9]) is -3%; in test [2] (setting [10]), 1%; in test [3] (setting [11]), -6%; in test [4] (setting [12]) it was 3%.

`Cc1ccc(C)c(Sc2cnn(-c3ccccc3)c(=O)c2Cl)c1` [compound 183339]: the inhibition at 10 µM was 8% in test [1] (setting [5]), -30% in test [2] (setting [6]), 15% in test [3] (setting [7]) and -12% in test [4] (setting [8]).

Turning to `O=c1c(SCc2ccccc2)c(N2CCOCC2)cnn1-c1ccccc1` [compound 224770], the inhibition at 10 µM in test [1] (setting [5]) was -8%; in test [2] (setting [6]) it was 24%; in test [3] (setting [7]), 65%; in test [4] (setting [8]) it was -8%.

In the case of `O=c1ccc(Oc2nc(N3CCCCC3)nc(N3CCCCC3)n2)nn1-c1ccccc1` [compound 196618], the inhibition at 10 µM in test [1] (setting [5]) was -14%; in test [2] (setting [6]), -33%; in test [3] (setting [7]) it was 3%; in test [4] (setting [8]) it was 12%.

As to `O=c1c(SCc2ccccc2)cc(Cl)nn1-c1ccccc1` [compound 208702], the inhibition at 10 µM is -16% in test [1] (setting [5]), 0% in test [2] (setting [6]), 3% in test [3] (setting [7]) and -15% in test [4] (setting [8]).

As to `CC(C)Oc1c(S)cnn(-c2ccccc2)c1=O` [compound 213495], the inhibition at 10 µM in test [1] (setting [5]) was -15%; in test [2] (setting [6]), 8%; in test [3] (setting [7]), 4%; in test [4] (setting [8]), -5%.

In the case of `COc1cnn(-c2cccc(C)c2)c(=O)c1Cl` [compound 104325], the inhibition at 10 µM in test [1] (setting [5]) is -12%; in test [2] (setting [6]), 4%; in test [3] (setting [7]), -31%; in test [4] (setting [8]) it was 2%.

On to `O=C(c1ccc([N+](=O)[O-])o1)N(c1ccccc1)c1ccccc1` [compound 98705], for which the inhibition at 10 µM in test [1] (setting [9]) is 14%; in test [2] (setting [10]), 9%; in test [3] (setting [11]) it was -8%; in test [4] (setting [12]), 8%.

`CSc1c(SCc2ccccc2)cnn(-c2ccccc2)c1=O` [compound 182831]: the inhibition at 10 µM in test [1] (setting [5]) was 5%; in test [2] (setting [6]), -18%; in test [3] (setting [7]), -4%; in test [4] (setting [8]), -12%.

On to `CC(C)(C)NC(=O)c1ccc(NC(=O)c2ccco2)cc1` [compound 91753], for which the inhibition at 10 µM in test [1] (setting [9]) was -22%; in test [2] (setting [10]), -1%; in test [3] (setting [11]), -3%; in test [4] (setting [12]), -5%.

As for `O=c1ccc(Cl)nn1-c1cccc(Br)c1` [compound 178393], the inhibition at 10 µM in test [1] (setting [5]) was 3%; in test [2] (setting [6]) it was -4%; in test [3] (setting [7]), 8%; in test [4] (setting [8]) it was -11%.

Regarding `O=C(Nc1ccc(N2CCN(Cc3ccccc3)CC2)cc1)c1ccco1` [compound 93911], the inhibition at 10 µM in test [1] (setting [9]) is -22%; in test [2] (setting [10]), -1%; in test [3] (setting [11]), -4%; in test [4] (setting [12]), -3%.

For `CCSc1cnn(-c2ccccc2)c(=O)c1SCC` [compound 174406], the inhibition at 10 µM in test [1] (setting [5]) was 3%; in test [2] (setting [6]), 8%; in test [3] (setting [7]), 18%; in test [4] (setting [8]), -9%.

`Cc1cccc(N2CCN(Cc3ccc([N+](=O)[O-])o3)CC2)c1C` [compound 101070]: the inhibition at 10 µM in test [1] (setting [9]) was -18%; in test [2] (setting [10]) it was 1%; in test [3] (setting [11]), 2%; in test [4] (setting [12]), 5%.
